What is called IC50 is the point on the concentration scale where inhibition reaches its midpoint.

For one test, the target named is human RBP4 (Homo sapiens (Human), UniProt P02753). Put plainly: Binding assay by Retinol-RBP4-TTR ELISA. The note with it: for inhibition at 10 µM: at 10 μM compound, read-out: human RBP4 binding inhibitory activity(% at 10 μM). As for the experimental part: The action of the compound of the present invention to inhibit binding of RBP4 and retinol and TTR was evaluated using the Retinol-RBP4-TTR ELISA system shown below.
1F: Binding Assay by Retinol-RBP4-TTR ELISA
This ELISA system detects a complex of RBP4 and TTR based on a retinol-dependent binding of RBP4 to TTR.
His-tagged human RBP4 used was prepared in the above-mentioned 1C.
Biotinylate human TTR used was prepared in the above-mentioned 1E.
Streptavidin (20 μl) (10 μg/ml Streptavidin type II (Wako Pure Chemical Industries, Ltd.), 10 mM Tris-HCl (pH 7.5), 10 mM NaCl) was added to a 384 well black plate (Nunc MaxiSorp, Thermo Fisher Scientific Inc.), and the plate was subjected to centrifugation (1000 rpm, 1 min) and coated overnight at 4° C. The plate was washed twice with PBST (PBS, 0.05% Tween 20, 100 μl/well) and blocked with 25% Block Ace (Snow Brand Milk Products Co., Ltd., PBS, 100 μl/well). The plate was subjected to centrifugation (1000 rpm, 1 min) and incubated at room temperature for 4 hr or overnight at 4° C. The plate was washed twice with PBST (PBS, 0.05% Tween 20, 100 μl/well), and biotinylate human TTR (stock solution concentration 1.0 mg/ml) diluted 750-fold with PBST was added at 20 μl/well. The plate was subjected to centrifugation (1000 rpm, 1 min) and stood still at room temperature for 1.5 hr or overnight at 4° C. The plate was washed 3 times with PBST (100 μl/well), and His-tagged human RBP4 (stock solution concentration 0.96 mg/ml) diluted 4000-fold with a reaction buffer (50 mM Tris-HCl, 150 mM NaCl, 0.005% Tween 20, 1 mM DTT, 0.1% BSA) was added at 10 μl/well. The dilution series (8 doses from 10 mM, 200-fold concentration) of the compound was prepared with DMSO, and 1 μl of each was added to a reaction buffer (200 μl) containing retinol (50 nM) (Sigma-Aldrich Co.). A reaction buffer (200 μl) containing retinol and added with DMSO was used as a positive control, and reaction buffer (200 μl) free of retinol and added with DMSO was used as a negative control. Mixed solutions of retinol and the compound were added to the plate at 15 μl/well. The plate was stirred in a platemixer subjected to centrifugation (1000 rpm, 1 min) and reacted at room temperature for 2 hr. A 35% Block Ace solution diluted with the reaction buffer was added at 10 μl/well, centrifuged (1000 rpm, 1 min) and reacted at room temperature for 30 min. The plate was washed 3 times with PBST (100 μl/well) and SuperSignal ELISA Femto Maximum Sensitivity Substrate reagent (PIERCE, Thermo Fisher Scientific Inc.) was added at 30 μl/well, and the luminescence was measured by a platereader (Wallac).
The binding inhibitory activity of the compound was determined by 100×(positive control value-test compound value)/(positive control value-negative control value). The binding activity (IC50) was calculated from the binding inhibitory rate at each compound concentration using a graph drawing software, GraphPad Prism (GraphPad Software Inc.).
(In general: ELISA stands for enzyme-linked immunosorbent assay.)

Another test has as its target RBP4 (Mus musculus (Mouse), UniProt Q00724). As to the kind of experiment: Single administration test in mice, plasma RBP4 by ELISA. The format is in vivo. As to conditions: male C57BL/6J or ICR mice, 50 mg/kg oral single dose, mean±SD; for RBP4 (% of initial/Control) 0 hr: 0 hr (just before the administration); for RBP4 (% of initial/Control) 4 hr: 4 hr after administration; for RBP4 (% of initial/Control) 7 hr: 7 hr after administration; for RBP4 (% of initial/Control) 24 hr: 24 hr after administration. As for the experimental part:
The action of the compounds of the present invention to reduce plasma RBP4 level was evaluated using the animal model shown below.
Male C57BL/6J and ICR mice were purchased from Charles River (Japan) and maintained on a normal diet (CE2, CLAE Japan, Inc.) and tap water. Animals were housed in a temperature-controlled room adjusted to a 12-hour light/12-hour dark cycle beginning at 7:00 and 19:00, respectively. All procedures were conducted according to the experimental animal care use committee of Takeda Pharmaceutical Company.
Male 6-12-week-old C57BL/6J or ICR mice were housed individually and fed CE2 for 4-6 days. After acclimatization, mice were divided into groups based on their body weight. Compounds were suspended in 0.5% (w/v) methylcellulose in water and given orally to mice at a dose of 50 mg/10 mL/kg of body weight (three to five mice per group). Blood samples were obtained from orbital vein with sodium heparin as an anticoagulant at time 0 hr (just before the administration), 4 hr, 7 hr, and 24 hr after the administration, followed by plasma separation by centrifugation. Plasma RBP4 levels were measured by enzyme-linked immunosorbent assay described in the following section.
Plasma samples were analyzed in duplicate for RBP4 by an enzyme-linked immunosorbent assay. Mouse recombinant RBP4 (Takeda Pharmaceutical Company) was used as standards, and the assay range was 0.313-20 ng/ml. Samples were diluted 10,000-fold with phosphate-buffered saline (PBS) (Sigma) containing 10% (w/v) BlockAce (Dainippon Sumitomo Pharma Co., Ltd). Rabbit anti-RBP4 polyclonal antibody (100 μL/well of 50 μg/mL, Hokudo Co, Ltd) was incubated in a 96-well plate (Nalge Nunc International K.K.) for overnight at 4° C. Subsequently, the plates were washed with PBS-T (Wako Pure Chemical Industries, Ltd.) and blocked with PBS containing 25% BlockAce for 1 hr at room temperature. After another washing with PBS-T, samples and standards were applied to the well, and the plates were incubated for 2 hr at room temperature. After a washing the wells, peroxidase-labeled (Dojindo Laboratories) anti-RBP4 (100 μL/well) was added to the wells, and then the plates were incubated for 1 hr at room temperature. After a final washing with PBS-T, substrate solution 3,3,5,5-tetramethylbenzidine (Sigma) was added to the wells, and the plates were placed in the dark for 5-20 min at room temperature. The reaction was stopped with 0.5 M sulphuric acid and the optical density was measured with a spectrophotometer at 450 nm. The changes in plasma RBP4 levels were expressed as % of initial/Control. All data are presented as mean±SD.

Take `CC(C)(C)c1cc(Br)ccc1N1CCN(C(=O)C(=O)O)CC1` [Example 67, [4-(4-Bromo-2-tert-butylphenyl)piperazin-1-yl](oxo)acetic acid]: the inhibition at 10 µM on human RBP4 was 100%. On RBP4, the “RBP4 (% of initial/Control) 0 hr” value was 100.0 ± 26.6 % of initial/Control, the “RBP4 (% of initial/Control) 4 hr” value is listed as 44.8 ± 2.9 % of initial/Control, the “RBP4 (% of initial/Control) 7 hr” value was 40.3 ± 1.6 % of initial/Control and the “RBP4 (% of initial/Control) 24 hr” value is 94.9 ± 22.6 % of initial/Control.
Turning to `CC(C)(C)c1ccccc1N1CCN(C(=O)c2ncoc2CCC(=O)O)CC1` [Example 178, 3-(4-{[4-(2-tert-Butylphenyl)piperazin-1-yl]carbonyl}-1,3-oxazol-5-yl)propanoic acid], at human RBP4, the inhibition at 10 µM was found to be 100%. In addition, at RBP4, the “RBP4 (% of initial/Control) 0 hr” value is given as 100.0 ± 12.8 % of initial/Control, the “RBP4 (% of initial/Control) 4 hr” value was 70.1 ± 1.8 % of initial/Control, the “RBP4 (% of initial/Control) 7 hr” value is 67.0 ± 2.6 % of initial/Control and the “RBP4 (% of initial/Control) 24 hr” value is listed as 123.3 ± 14.2 % of initial/Control.
`CC(C)(C)c1ccccc1N1CCN(C(=O)C(=O)NS(=O)(=O)NCC2CC2)CC1` [Example 39, 2-[4-(2-tert-Butylphenyl)piperazin-1-yl]-N-[(cyclopropylmethyl)sulfamoyl]-2-oxoacetamide]: on human RBP4, the inhibition at 10 µM was found to be 97%. Further, the IC50 at human RBP4 (retinol 50 nM, His-tagged human RBP4, biotinylated human TTR, read-out: human RBP4 binding inhibitory activity (IC50 nM)) is 430 nM. Besides, at RBP4, the “RBP4 (% of initial/Control) 0 hr” value was 100.0 ± 5.8 % of initial/Control, the “RBP4 (% of initial/Control) 4 hr” value is reported as 37.1 ± 1.9 % of initial/Control, the “RBP4 (% of initial/Control) 7 hr” value is recorded as 45.1 ± 6.2 % of initial/Control and the “RBP4 (% of initial/Control) 24 hr” value is given as 86.6 ± 12.4 % of initial/Control.
`CC(C)(C)c1ccccc1N1CCN(C(=O)c2ccc(SCC(=O)O)nc2)CC1` [Example 25, [(5-{[4-(2-tert-Butylphenyl)piperazin-1-yl]carbonyl}pyridin-2-yl)sulfanyl]acetic acid]: the inhibition at 10 µM at human RBP4 is 100%. Also, on RBP4, the “RBP4 (% of initial/Control) 0 hr” value is recorded as 100.0 ± 7.3 % of initial/Control, the “RBP4 (% of initial/Control) 4 hr” value is 45.0 ± 1.9 % of initial/Control, the “RBP4 (% of initial/Control) 7 hr” value was 57.6 ± 5.6 % of initial/Control and the “RBP4 (% of initial/Control) 24 hr” value is listed as 75.8 ± 6.0 % of initial/Control.
As to `CC(C)(C)c1ccccc1N1CCN(C(=O)Cn2cnnn2)CC1` [Example 94, 1-(2-tert-Butylphenyl)-4-(1H-tetrazol-1-ylacetyl)piperazine], the inhibition at 10 µM on human RBP4 was 100%. Also, at RBP4, the “RBP4 (% of initial/Control) 0 hr” value is reported as 100.0 ± 21.7 % of initial/Control, the “RBP4 (% of initial/Control) 4 hr” value was 45.7 ± 0.8 % of initial/Control, the “RBP4 (% of initial/Control) 7 hr” value was 58.9 ± 5.1 % of initial/Control and the “RBP4 (% of initial/Control) 24 hr” value was 89.2 ± 11.6 % of initial/Control.
For `CC(C)(C)c1ccccc1N1CCN(C(=O)c2cc(OCC(=O)O)no2)CC1` [Example 216, [(5-{[4-(2-tert-Butylphenyl)piperazin-1-yl]carbonyl}isoxazol-3-yl)oxy]acetic acid], the inhibition at 10 µM at human RBP4 was 100%. On RBP4, the “RBP4 (% of initial/Control) 0 hr” value was 100.0 ± 16.6 % of initial/Control, the “RBP4 (% of initial/Control) 4 hr” value was 43.4 ± 4.7 % of initial/Control, the “RBP4 (% of initial/Control) 7 hr” value was 36.9 ± 1.0 % of initial/Control and the “RBP4 (% of initial/Control) 24 hr” value is reported as 66.4 ± 28.1 % of initial/Control.
Consider `Cc1nc(C(=O)N2CCN(c3ccccc3C(C)(C)C)CC2)cn1CC(=O)O` [Example 205, (4-{[4-(2-tert-Butylphenyl)piperazin-1-yl]carbonyl}-2-methyl-1H-imidazol-1-yl)acetic acid], for which, at human RBP4, the inhibition at 10 µM was 100%. Moreover, on RBP4, the “RBP4 (% of initial/Control) 0 hr” value was 100.0 ± 18.9 % of initial/Control, the “RBP4 (% of initial/Control) 4 hr” value is recorded as 66.3 ± 5.7 % of initial/Control, the “RBP4 (% of initial/Control) 7 hr” value is reported as 75.0 ± 10.8 % of initial/Control and the “RBP4 (% of initial/Control) 24 hr” value is given as 125.7 ± 20.9 % of initial/Control.
For `Cc1ccc(N2CCN(C(=O)C(=O)O)CC2)c(C(C)(C)C)c1` [Example 82, [4-(2-tert-Butyl-4-methylphenyl)piperazin-1-yl](oxo)acetic acid], the inhibition at 10 µM on human RBP4 was found to be 99%. Besides, at RBP4, the “RBP4 (% of initial/Control) 0 hr” value is given as 100.0 ± 12.5 % of initial/Control, the “RBP4 (% of initial/Control) 4 hr” value is listed as 54.6 ± 4.1 % of initial/Control, the “RBP4 (% of initial/Control) 7 hr” value is 74.2 ± 15.5 % of initial/Control and the “RBP4 (% of initial/Control) 24 hr” value is on record as 101.5 ± 9.7 % of initial/Control.
Consider `CC(C)(C)c1ccccc1N1CCN(C(=O)c2ccc(OCC(=O)O)cc2)CC1` [Example 24, (4-{[4-(2-tert-Butylphenyl)piperazin-1-yl]carbonyl}phenoxy)acetic acid], for which the inhibition at 10 µM on human RBP4 is 100%. In addition, on RBP4, the “RBP4 (% of initial/Control) 0 hr” value is 100.0 ± 36.4 % of initial/Control, the “RBP4 (% of initial/Control) 4 hr” value is given as 30.9 ± 2.7 % of initial/Control, the “RBP4 (% of initial/Control) 7 hr” value is listed as 32.2 ± 2.2 % of initial/Control and the “RBP4 (% of initial/Control) 24 hr” value was 73.1 ± 25.6 % of initial/Control.
As to `CC(C)(C)c1ccccc1N1CCN(C(=O)CCC(=O)O)CC1` [Example 53, 4-(4-(2-tert-Butylphenyl)piperazin-1-yl)-4-oxobutanoic acid], the inhibition at 10 µM at human RBP4 came to 100%. At RBP4, the “RBP4 (% of initial/Control) 0 hr” value is on record as 100.0 ± 29.7 % of initial/Control, the “RBP4 (% of initial/Control) 4 hr” value is listed as 39.9 ± 3.4 % of initial/Control, the “RBP4 (% of initial/Control) 7 hr” value is on record as 30.2 ± 1.3 % of initial/Control and the “RBP4 (% of initial/Control) 24 hr” value is recorded as 93.6 ± 15.1 % of initial/Control.

For the origin of these results see patent US8853215B2, “Derivatives of N-acyl-N′-phenylpiperazine useful (inter alia) for the prophylaxis or treatment of diabetes” (Takeda Pharmaceutical Company Limited, priority 2009, dated 2014).
